Experimental data as given in patent publication US20240287048A1, “SUBSTITUTED ACYL SULFONAMIDES FOR TREATING CANCER” (The Broad Institute, Inc., priority 2020, published 2024).

How the values were obtained:
ZR-75-1 cells = assay: Proliferation assay in ZR-75-1 cells; type: cell-based; details: Homo sapiens, 144 h, Alamar Blue, read-out: ZR75-1 proliferation assay, EC50[M] (arithmetic mean)
Text: (§1) For compound characterization cell survival assays were routinely run in two cell lines. ZR-75-1 is a breast carcinoma cell line containing a focal KAT6A amplification and high KAT6A protein expression. Proliferation of this cell line is inhibited upon treatment with KAT6A inhibitors. As a negative control cell line MDA-MB-436 were used. These cells carry a […] deletion of the KAT6A gene, have a low KAT6A protein expression and are not growth inhibited upon treatment with KAT6A inhibitors.
(§2) For measurements cell lines were plated at the below indicated concentration per […] in 96-well plates in a humidified incubator at 37° C. and 5% CO2.
(§3) ZR-75-1 (ATCC, CRL-1500; breast carcinoma); 3000 cells per well; culture medium: RPMI 1640 (Biochrom #FG 1215) medium containing 2.5% FBS (Biochrom #S0615). LCLC-97TM1 (DSMZ, ACC 388; large cell lung carcinoma); 6000 cells per well; culture medium: RPMI 1640 (Biochrom #FG 1215) medium containing 2.5% FBS (Biochrom #S0615). MDA-MB-436 (CLS, 300278; breast adenocarcinoma); 3000 cells per well; culture medium: DMEM/Ham's F12 (Biochrom #FG 4815) medium containing 2.5% FBS (Biochrom #S0615).
(§4) Each sample was prepared as triplicate and rim wells were excluded. Plates were incubated at 37° C. and 5% CO2 for 144 h. Cell viability was measured by adding 10 μL of Alamar Blue Reagent (Invitrogen #DAL 1100) and plates were incubated for 2 h at 37° C. and 5% CO2. Fluorescence was measured at 590 nm wavelength with a Tecan Spark or Victor X3 MTP-Reader (PerkinElmer).

MDA-MB-436 cells = assay: Proliferation assay in MDA-MB-436 cells (negative control cell line); type: cell-based; details: Homo sapiens, 144 h, Alamar Blue, read-out: MDA-MB-436 proliferation assay, EC50[M] (arithmetic mean)
Text: as §1, §2, §3, §4

KAT6A = target: T1, KAT6A (Homo sapiens, UniProt Q92794); assay: Kat6a activity assay (TR-FRET, acetylation of biotinylated histone H4 peptide); type: biochemical; details: recombinant human His-tagged Kat6a (amino acids 194-810), 60 mins at 22° C., read-out: KAT6A-DPF/HAT domain IC50 [mol/l] (arithmetic mean)
T1 construct: Recombinant human His-tagged Kat6a protein (amino acids 194-810); His; made in house; host or cells: Baculovirus-infected Sf9 insect cells
T1 sequence (Q92794 194-810): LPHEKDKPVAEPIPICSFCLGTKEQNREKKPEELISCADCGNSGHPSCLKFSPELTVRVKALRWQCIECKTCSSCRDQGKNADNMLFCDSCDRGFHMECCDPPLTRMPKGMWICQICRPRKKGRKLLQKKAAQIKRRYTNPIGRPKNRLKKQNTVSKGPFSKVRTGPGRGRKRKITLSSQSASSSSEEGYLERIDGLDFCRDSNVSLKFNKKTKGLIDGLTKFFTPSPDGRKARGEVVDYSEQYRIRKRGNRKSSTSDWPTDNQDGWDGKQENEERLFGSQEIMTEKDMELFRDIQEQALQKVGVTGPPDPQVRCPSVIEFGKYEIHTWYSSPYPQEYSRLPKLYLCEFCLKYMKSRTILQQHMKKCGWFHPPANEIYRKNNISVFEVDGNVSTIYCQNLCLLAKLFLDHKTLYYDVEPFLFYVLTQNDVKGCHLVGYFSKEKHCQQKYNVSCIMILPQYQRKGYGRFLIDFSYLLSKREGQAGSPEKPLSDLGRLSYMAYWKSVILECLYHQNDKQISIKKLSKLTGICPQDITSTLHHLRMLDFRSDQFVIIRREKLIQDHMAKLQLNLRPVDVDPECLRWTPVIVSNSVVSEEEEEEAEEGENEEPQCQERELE
Text: Kat6a inhibitory activities of the compounds described in the present invention were quantified using a Fluorescence Resonance Energy Transfer (TR-FRET) assay which measures acetylation of a synthetic, biotinylated Histone-H4-derived peptide by the enzyme.
Recombinant human His-tagged Kat6a protein (amino acids 194-810), was purified in-house from Baculovirus-infected insect cells (Sf9). Histone H4 peptide (amino acids 1-24, […]-VLRD-K(Btn)-amide), which was used as substrate, was synthesized by Biosyntan GmbH, Berlin, Germany. Acetyl Coenzyme A was purchased from Sigma-Aldrich (#A-2056).
Kat6a was incubated for 60 mins at 22° C. in the presence of different concentrations of test substances (0 μM, and within the range 0.01-20 μM) in assay buffer [25 mM Tris/HCl pH 8, 1 mM EGTA, 2.5 mM Glutathion, 0.02% Chicken Albumin, 0.05% Pluronic F127, 25 mM NaCl, 220 nM H4 peptide and 600 nM Acetyl Coenzyme A].
The reaction was stopped by addition of Detection Solution (25 mM HEPES pH 7.5, 0.1% BSA, 22 nM SAXL665 (Cisbio #610SAXLE), 100 μM Anacardic Acid (Enzo #ALX-270-381), 1 nM Anti-Histone H4 (ACETYL K8) Antibody (ABCAM #AB15823) and 0.5 nM Anti-Rabbit IgG Eu (Perkin Elmer #AD0083).
The fluorescence emission at 620 nm and 665 nm after excitation at 330-350 nm was measured in a TR-FRET measuring instrument, for instance a Rubystar or a Pherastar (both from BMG Lab Technologies, Offenburg, Germany) or a Viewlux (Perkin-Elmer). The ratio of the emission at 665 nm and at […] was used as indicator of the amount of acetylated peptide.
The resulting data (ratio) were normalized, taking 0% inhibition as the mean value of control measurements where all reagents were included. In this case 50 nl DMSO were used instead of compounds. […] IC50 values were determined by regression analysis based on a 4 parameter equation (minimum, maximum, ICM, Hill; Y=Max+(Min−Max)/(1+(X/ICso) Hill) using the Screener Software (Genedata).

LCLC-97TM1 cells = assay: Proliferation assay in LCLC-97TM1 cells; type: cell-based; details: Homo sapiens, 144 h, Alamar Blue, read-out: LCLC97TM1 proliferation assay, EC50[M] (arithmetic mean)
Procedure: as §2, §3, §4

[1] = tested on: ESR1 transcription in MVLN cells; assay: Repression of ESR1 transcription, MVLN luciferase reporter assay; type: cell-based; details: Homo sapiens, luciferase signal after 24 h, read-out: MVLN reporter assay, IC50[M] (arithmetic mean)
Text: KAT6A controls transcription of the ESR1 gene in breast cancer cells. Compound treatment that interferes with this mechanism was quantified using MVLN cells. These cells constitutively express the ER and are stably transfected with the luciferase (LUC) reporter gene and the corresponding hormone responsive element derived from the 5′-flanking region of the Xenopus Vitellogenin A2 gene (Pons et al., 1990, Demirpense et al., 1993, Joyeux et al., 1993). The repressive effect on ERα transcription activity of a test chemical is directly related to the luciferase measured in the lysate of treated MVLN cells.
Each sample was prepared as duplicate and rim wells were excluded. For luciferase signal determination 100 μl of a 1:1 mixture of Steadylite plus (Perkin Elmer; 6016759) and assay medium was added after 24 h for 15 minutes and measured in Victor X3 (Perkin Elmer). To exclude any effects caused by cell loss during the treatment, cell density was determined using Alamar Blue (Invitrogen; DAL1100). Prior to the luciferase measurement 10 μl Alamar Blue were added to each well and the plates were incubated for 2 h in the incubator. Then fluorescence was measured with Victor X3 (Perkin Elmer) at 530 nm/590 nm.

| EC50 (MDA-MB-436 cells) [M] | IC50 (KAT6A) [µM] | IC50 [1] [M] | Compound | EC50 (ZR-75-1 cells) [M] | EC50 (LCLC-97TM1 cells) [M] |
| --- | --- | --- | --- | --- | --- |
| > 2e-05 | > 20 |  | O=C(NS(=O)(=O)c1ccccc1-c1ccccc1)c1cc2ccc(-c3ccncc3)cc2o1 [Example 20, N-([1,1′-Biphenyl]-2-sulfonyl)-6-(pyridin-4-yl)-1-benzofuran-2-carboxamide] | 3.49e-06 |  |
| > 2e-05 | 0.00331 | 4.96e-08 | COc1ccc(C(C)(C)C)cc1S(=O)(=O)NC(=O)c1cc2c(F)cc(C3CC3)cc2o1 [Example 66, N-((5-(tert-butyl)-2-methoxyphenyl)sulfonyl)-6-cyclopropyl-4-fluorobenzofuran-2-carboxamide] | 1.76e-07 | 2.64e-07 |
| > 2e-05 | 0.729 | 3.63e-06 | Cc1ccc2cccc(S(=O)(=O)NC(=O)c3cc4ccc(C(F)(F)F)cc4o3)c2n1 [Example 19, N-(2-Methylquinoline-8-sulfonyl)-6-(trifluoromethyl)-1-benzofuran-2-carboxamide] | 4.94e-06 | > 2e-05 |
|  | 0.138 | 1.88e-05 | O=C(NS(=O)(=O)c1ccccc1)c1cc2c(C(F)(F)F)cc(C3CC3)cc2o1 [Example 52, N-(Benzenesulfonyl)-6-cyclopropyl-4-(trifluoromethyl)benzofuran-2-carboxamide] | 7.32e-06 |  |
|  | 0.043 | 6.16e-06 | O=C(NS(=O)(=O)c1ccccc1-c1ccccc1)c1cc2c(C(F)(F)F)cc(C3CC3)cc2o1 [Example 53, 6-Cyclopropyl-N-(2-phenylphenyl)sulfonyl-4-(trifluoromethyl)benzofuran-2-carboxamide] | > 2e-05 |  |
| > 2e-05 | 17.3 | > 2e-05 | CN(C)C(=O)c1ccc2cc(C(=O)NS(=O)(=O)c3ccccc3-c3ccccc3)oc2c1 [Example 8, N^2-([1,1′-biphenyl]-2-sulfonyl)-N^6,N^6-dimethyl-1-benzofuran-2,6-dicarboxamide] | > 2e-05 |  |
| > 2e-05 | 5.75 | > 2e-05 | O=C(O)c1ccc2cc(C(=O)NS(=O)(=O)c3ccccc3-c3ccccc3)oc2c1 [Example 5, 2-[([1,1′-biphenyl]-2-sulfonyl)carbamoyl]-1-benzofuran-6-carboxylic acid] | > 2e-05 |  |

Second part, the compound before the results:

| Compound | EC50 (MDA-MB-436 cells) [M] | IC50 (KAT6A) [µM] | IC50 [1] [M] | EC50 (ZR-75-1 cells) [M] | EC50 (LCLC-97TM1 cells) [M] |
| --- | --- | --- | --- | --- | --- |
| O=C(NS(=O)(=O)c1ccc(Cl)cc1Cl)c1cc2c(F)cc(C3CC3)cc2o1 [Example 37, 6-Cyclopropyl-N-(2,4-dichlorophenyl)sulfonyl-4-fluoro-benzofuran-2-carboxamide] | > 2e-05 | 0.078 | 1.06e-05 | 6.28e-06 | > 2e-05 |
| Cc1ccc2cccc(S(=O)(=O)NC(=O)c3cc4c(N(C)C)cc(C5CC5)cc4o3)c2n1 [Example 43, 6-Cyclopropyl-4-(dimethylamino)-N-[(2-methyl-8-quinolyl)sulfonyl]benzofuran-2-carboxamide] | > 2e-05 | 0.013 | 6.92e-06 | 5.64e-06 | > 2e-05 |
| Cc1ccc2cccc(S(=O)(=O)NC(=O)c3cc4c(C(F)(F)F)cc(C5CC5)cc4o3)c2n1 [Example 50, 6-Cyclopropyl-N-[(2-methyl-8-quinolyl)sulfonyl]-4-(trifluoromethyl)benzofuran-2-carboximide] | > 2e-05 | 0.00555 | 1.95e-06 | 1.38e-05 | > 2e-05 |
| CCOc1ccccc1S(=O)(=O)NC(=O)c1oc2cc(C)ccc2c1C [Example 18, N-(2-Ethoxybenzene-1-sulfonyl)-3,6-dimethyl-1-benzofuran-2-carboxamide] | > 2e-05 | 0.827 | 5.56e-06 | 5.01e-06 | 1.06e-05 |
| C=C(C)c1ccc2cc(C(=O)NS(=O)(=O)c3ccccc3-c3ccccc3)oc2c1 [Example 23, N-([1,1′-biphenyl]-2-sulfonyl)-6-(prop-1-en-2-yl)-1-benzofuran-2-carboxamide] | > 2e-05 |  |  | 1.15e-06 |  |
| CCOc1ccccc1S(=O)(=O)NC(=O)c1cc2c(C(F)(F)F)cc(C3CC3)cc2o1 [Example 51, 6-Cyclopropyl-N-(2-ethoxyphenyl)sulfonyl-4-(trifluoromethyl)benzofuran-2-carboxamide] |  | 0.0256 | 2.98e-06 | 9.14e-06 |  |
| O=C(NS(=O)(=O)c1ccccc1)c1cc2c(F)cc(C3CC3)cc2o1 [Example 39, N-(Benzenesulfonyl)-6-cyclopropyl-4-fluoro-benzofuran-2-carboxamide] | > 2e-05 | 0.0707 | 4.57e-06 | 3.21e-06 | > 2e-05 |
| O=C(NS(=O)(=O)c1ccccc1-c1ccccc1)c1cc2c(F)cc(C3CC3)cc2o1 [Example 38, 6-Cyclopropyl-4-fluoro-N-(2-phenylphenyl)sulfonyl-benzofuran-2-carboxamide] | > 2e-05 | 0.0173 | 1e-06 | 9.57e-07 | 3.21e-06 |
| O=C(NS(=O)(=O)c1ccccc1-c1ccccc1)c1cc2ccc(-c3cccnc3)cc2o1 [Example 4, N-([1,1′-biphenyl]-2-sulfonyl)-6-(pyridin-3-yl)-1-benzofuran-2-carboxamide] | > 2e-05 | 15.2 | 1.98e-05 | > 2e-05 | > 2e-05 |
| CCOc1ccccc1S(=O)(=O)NC(=O)c1cc2c(N(C)C)cc(C3CC3)cc2o1 [Example 45, 6-Cyclopropyl-4-(dimethylamino)-N-(2-ethoxyphenyl)sulfonyl-benzofuran-2-carboxamide] | > 2e-05 | 0.0799 | 1.68e-05 | > 2e-05 | > 2e-05 |
| N#Cc1ccc2cc(C(=O)NS(=O)(=O)c3ccccc3-c3ccccc3)oc2c1 [Example 3, N-([1,1′-biphenyl]-2-sulfonyl)-6-cyano-1-benzofuran-2-carboxamide] | > 2e-05 | > 20 |  | > 2e-05 |  |
| CC(C)c1ccc2cc(C(=O)NS(=O)(=O)c3ccc(Cl)cc3Cl)oc2c1 [Example 57, N-(2,4-Dichlorobenzenesulfonyl)-6-(propan-2-yl)-1-benzofuran-2-carboxamide] | > 2e-05 |  | 1.21e-05 | > 2e-05 |  |
